Experimental data published in PubChem BioAssay (NCI).
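Exposure lasted 48 hours, with cells grown in 96-well plates and compounds tested at five concentrations. TGI marks complete inhibition of growth.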

What was measured:
Assay in all cases: inhibition of tumour cell growth, NCI panel, 48 h
SK-OV-3 ovarian = tested on: SK-OV-3 ovarian
OVCAR-5 ovarian = tested on: OVCAR-5 ovarian
KM12 colon = tested on: KM12 colon
EKVX NSCLC = tested on: EKVX NSCLC
HT29 colon = tested on: HT29 colon
ACHN renal = tested on: ACHN renal
NCI-H460 lung = tested on: NCI-H460 lung
UACC-257 melanoma = tested on: UACC-257 melanoma
SR leukemia = tested on: SR leukemia
RXF 393 renal = tested on: RXF 393 renal

Row | Compound | TGI (SK-OV-3 ovarian) [µM] | TGI (OVCAR-5 ovarian) [µM] | TGI (KM12 colon) [µM] | TGI (EKVX NSCLC) [µM] | TGI (HT29 colon) [µM] | TGI (ACHN renal) [µM] | TGI (NCI-H460 lung) [µM] | TGI (UACC-257 melanoma) [µM] | TGI (SR leukemia) [µM] | TGI (RXF 393 renal) [µM]
1 | O=C(O)Cc1cc(=O)oc2cc(O)c(Cl)cc12 | > 100 | > 100 | > 100 | > 100 | > 100 | > 100 | > 100 |  |  | 
2 | COc1ccc2c(OC)c3ccoc3nc2c1O | > 100 | > 100 | > 100 | > 100 | > 100 | > 100 | > 100 | > 100 |  | 
3 | O=C(Nc1ccc(C(F)(F)F)cc1[N+](=O)[O-])C(=O)C(C(=O)c1ccc2ccccc2c1)C1OC(=O)c2ccccc21 (stereo not drawn) | > 100 | 26.5 | 24.4 | 21.2 | 23.9 | > 84.9 | 15.6 | 24 | > 100 | 10.1
4 | O=C1/C(=C/c2cccc([N+](=O)[O-])c2)COc2ccccc21 | > 62.8 | > 100 | 6.29 | > 92.2 | 6.85 | 8.04 | > 25.2 | > 64.7 |  | 12.8
5 | Nc1ccc(N=Nc2ccc(/C=C/c3ccc(N=Nc4ccc(N)c5ccc(S(=O)(=O)O)cc45)cc3S(=O)(=O)O)c(S(=O)(=O)O)c2)c2cc(S(=O)(=O)O)ccc12 | > 100 | > 100 | > 100 | > 100 | > 100 |  | > 100 | > 100 |  | > 100
6 | c1ccc(C2=NN(c3ccccc3)C3(S2)SC(c2ccccc2)(c2ccccc2)c2ccccc23)cc1 (stereo not drawn) | > 100 | > 100 | > 100 | > 100 | > 100 | > 100 | > 100 | > 100 |  | 
7 | Cc1ccc(S(=O)(=O)N/N=C2\C(=O)C3CC2C(Cl)C3Cl)cc1 (stereo not drawn) | > 100 | > 100 |  |  | > 100 | > 100 | > 100 | > 100 | > 100 | 
8 | N#CCCc1nc2ccc(Br)cc2c(=O)n1-c1ccc(O)c([N+](=O)[O-])c1 | 85.2 | > 100 | 34.5 | 74.3 | > 100 | > 100 | 66.9 | 74.3 |  | 32.4
9 | O=S(=O)(CC1=NC2C=CC=CC2N=C1)NCc1ccccc1 (stereo not drawn) | > 100 | > 100 | > 100 | > 100 | > 100 | > 100 | > 100 |  |  | > 100
10 | C/C(C=O)=C1\C(O)C[C@]1(C)C1CC(C)(C)CC1O (stereo partly drawn) |  | > 100 | > 100 | > 100 | > 100 | > 100 | > 100 | > 100 | > 100 | > 100
